What is called MIC is the lowest concentration that inhibits growth of the organism.

Values after ≈ are worked out from the molar mass of the structure shown.

In one experiment the test system is Bacillus subtilis. In words: In vitro antibacterial activity of compound was measured against gram positive Bacillus subtilis ATCC 6633. The experiment is classed as functional.
The subject of a further experiment is Salmonella typhimurium. In words: In vitro antibacterial activity of compound was measured against gram negative Salmonella Typhimurium 51. The experiment is classed as functional, Salmonella enterica subsp. enterica serovar Typhimurium. The note with it: Salmonella enterica.
A further experiment has as its system Serratia marcescens. In words: In vitro antibacterial activity of compound was measured against gram negative Serratia marcescens. It is filed as functional.
Experiment [1] deals with Staphylococcus aureus. In words: In vitro antibacterial activity of compound was measured against gram positive Staphylococcus aureus SMITH. It is filed as functional.
The next experiment relates to Proteus vulgaris. Nature of the experiment: In vitro antibacterial activity of compound was measured against gram negative Proteus vulgaris XL. The experiment is classed as functional.
Another experiment concerns Streptococcus pneumoniae. Nature of the experiment: In vitro antibacterial activity of compound was measured against gram positive Streptococcus pneumoniae. It is filed as functional.
Experiment [2] deals with Escherichia coli. In words: In vitro antibacterial activity of compound was measured against gram negative Escherichia coli 6R. It is filed as functional.
For experiment [3], the system named is Bordetella bronchiseptica. Nature of the experiment: In vitro antibacterial activity of compound was measured against gram negative Bordetella bronchiseptica ATCC 4617. It is filed as functional.
Another experiment concerns Pseudomonas aeruginosa. Nature of the experiment: In vitro antibacterial activity of compound was measured against gram negative Pseudomonas pyocyanea NCTC 10490. The experiment is classed as functional, pseudomona pyocyanea.
Another experiment has as its system Clostridium perfringens. Nature of the experiment: In vitro antibacterial activity of compound was measured against gram positive Clostridium perfringens 70500. The experiment is classed as functional.
For experiment [4], the system named is Streptococcus pyogenes. Nature of the experiment: In vitro antibacterial activity of compound was measured against gram positive Streptococcus pyogenes A 115 ROBB. It is filed as functional.
The test system of another experiment is Klebsiella pneumoniae. In words: In vitro antibacterial activity of compound was measured against gram negative Klebsiella pneumoniae ATCC 10031. It is filed as functional.
Experiment [5] deals with Acinetobacter calcoaceticus subsp. anitratus. In words: In vitro antibacterial activity of compound was measured against gram negative Acinetobacter anitratus 150001. The experiment is classed as functional.
Experiment [6] relates to Staphylococcus aureus. In words: In vitro antibacterial activity of compound was measured against gram positive Staphylococcus aureus 1110 pen.rez. The experiment is classed as functional.
Experiment [7] deals with Mycobacterium tuberculosis. Nature of the experiment: In vitro antibacterial activity of compound was measured against gram positive Mycobacterium tuberculosis Ravenel(bovin). It is filed as functional.
The test system of experiment [8] is Mycobacterium tuberculosis. Nature of the experiment: In vitro antibacterial activity of compound was measured against gram positive Mycobacterium tuberculosis H37Rv (human). The experiment is classed as functional.
A further experiment relates to Shigella sonnei. Nature of the experiment: In vitro antibacterial activity of compound was measured against gram negative Shigella sonnei. It is filed as functional.
Experiment [9] relates to Streptococcus pyogenes. In words: In vitro antibacterial activity of compound was measured against gram positive Streptococcus pyogenes A 118. The experiment is classed as functional.
The next experiment has as its system Proteus inconstans. In words: In vitro antibacterial activity of compound was measured against gram negative Proteus inconstans NCTC 8055. It is filed as functional. Particulars: Providencia alcalifaciens.
In the next experiment the test system is Enterococcus faecalis. Nature of the experiment: In vitro antibacterial activity of compound was measured against gram positive Streptococcus faecalis. It is filed as functional.
The test system of a further experiment is Alcaligenes faecalis. Nature of the experiment: In vitro antibacterial activity of compound was measured against gram negative Alcaligenes faecalis 140001. It is filed as functional.
In experiment [10] the test system is Escherichia coli. In words: In vitro antibacterial activity of compound was measured against gram negative Escherichia coli K12. It is filed as functional.
The next experiment concerns Bacteroides fragilis. Nature of the experiment: In vitro antibacterial activity of compound was measured against gram negative Bacteroides fragilis ATCC 25285. The experiment is classed as functional.

As for `CN1CCN(c2cc3c(cc2F)c(=O)c(C(=O)O)cn3N2CC2c2cccc(C(F)(F)F)c2)CC1` (stereo unspecified), the minimum inhibitory concentration (MIC) with Bacillus subtilis was found to be 10 µg/mL (≈ 20.4 µM); with Salmonella typhimurium it was 100 µg/mL (≈ 204 µM); in the experiment on Serratia marcescens, 100 µg/mL (≈ 204 µM); in the experiment on Staphylococcus aureus [1] it was 25 µg/mL (≈ 51 µM); in the experiment on Proteus vulgaris, 100 µg/mL (≈ 204 µM); in the experiment with Streptococcus pneumoniae, 12.5 µg/mL (≈ 25.5 µM). Further, the MIC with Escherichia coli [2] came out at 100 µg/mL (≈ 204 µM); in experiment [3] it was 50 µg/mL (≈ 102 µM); against Pseudomonas aeruginosa, 100 µg/mL (≈ 204 µM); against Clostridium perfringens it was 12.5 µg/mL (≈ 25.5 µM); in the experiment with Streptococcus pyogenes [4] it was 50 µg/mL (≈ 102 µM); against Klebsiella pneumoniae, 12.5 µg/mL (≈ 25.5 µM). Moreover, the minimum inhibitory concentration (MIC) in experiment [5] was 100 µg/mL (≈ 204 µM); against Staphylococcus aureus [6], 25 µg/mL (≈ 51 µM); in [7], 100 µg/mL (≈ 204 µM); in [8], 12.5 µg/mL (≈ 25.5 µM); in the experiment with Shigella sonnei, 25 µg/mL (≈ 51 µM); against Streptococcus pyogenes [9], 25 µg/mL (≈ 51 µM). Besides, the minimal inhibitory concentration (MIC) with Proteus inconstans is 100 µg/mL (≈ 204 µM); against Enterococcus faecalis it was 25 µg/mL (≈ 51 µM); against Alcaligenes faecalis, 100 µg/mL (≈ 204 µM); in the experiment with Escherichia coli [10], 100 µg/mL (≈ 204 µM); in the experiment with Bacteroides fragilis, 50 µg/mL (≈ 102 µM).
As for `CN1CCN(c2cc3c(cc2F)c(=O)c(C(=O)O)cn3N2CC2c2ccccn2)CC1` (stereo unspecified), the MIC against Bacillus subtilis was 50 µg/mL (≈ 118 µM); in the experiment with Salmonella typhimurium, 100 µg/mL (≈ 236 µM); against Serratia marcescens, 100 µg/mL (≈ 236 µM); against Staphylococcus aureus [1], 50 µg/mL (≈ 118 µM); in the experiment on Proteus vulgaris, more than 100 µg/mL; against Streptococcus pneumoniae, 25 µg/mL (≈ 59 µM). Moreover, the minimum inhibitory concentration (MIC) in the experiment with Escherichia coli [2] worked out at 100 µg/mL (≈ 236 µM); in experiment [3] it was 100 µg/mL (≈ 236 µM); against Pseudomonas aeruginosa, 100 µg/mL (≈ 236 µM); against Clostridium perfringens it was 50 µg/mL (≈ 118 µM); in the experiment on Streptococcus pyogenes [4] it was 50 µg/mL (≈ 118 µM); against Klebsiella pneumoniae it was 50 µg/mL (≈ 118 µM). Besides, the MIC in experiment [5] was more than 100 µg/mL; against Staphylococcus aureus [6], 100 µg/mL (≈ 236 µM); in experiment [7] it was 25 µg/mL (≈ 59 µM); in experiment [8], 50 µg/mL (≈ 118 µM); with Shigella sonnei, 12.5 µg/mL (≈ 29.5 µM); in the experiment with Streptococcus pyogenes [9] it was 50 µg/mL (≈ 118 µM). Further, the MIC in the experiment with Proteus inconstans is more than 100 µg/mL; with Enterococcus faecalis it was 100 µg/mL (≈ 236 µM); in the experiment with Alcaligenes faecalis, more than 100 µg/mL; against Escherichia coli [10], 100 µg/mL (≈ 236 µM); against Bacteroides fragilis, 50 µg/mL (≈ 118 µM).
As to `CN1CCN(c2cc3c(cc2F)c(=O)c(C(=O)O)cn3N2C3CCCCC32)CC1` (stereo unspecified), the MIC against Bacillus subtilis was determined as 3.1 µg/mL (≈ 7.74 µM); with Salmonella typhimurium, 25 µg/mL (≈ 62.4 µM); in the experiment on Serratia marcescens it was 50 µg/mL (≈ 125 µM); against Staphylococcus aureus [1], 50 µg/mL (≈ 125 µM); in the experiment on Proteus vulgaris, 50 µg/mL (≈ 125 µM); with Streptococcus pneumoniae, 100 µg/mL (≈ 250 µM). The minimal inhibitory concentration (MIC) with Escherichia coli [2] stood at 100 µg/mL (≈ 250 µM); in [3] it was 25 µg/mL (≈ 62.4 µM); in the experiment with Pseudomonas aeruginosa, 100 µg/mL (≈ 250 µM); in the experiment with Clostridium perfringens, 100 µg/mL (≈ 250 µM); against Streptococcus pyogenes [4], 100 µg/mL (≈ 250 µM); in the experiment with Klebsiella pneumoniae, 0.8 µg/mL (≈ 2 µM). For the same compound, the MIC in experiment [5] is 12.5 µg/mL (≈ 31.2 µM); with Staphylococcus aureus [6], 50 µg/mL (≈ 125 µM); in [7], 3.1 µg/mL (≈ 7.74 µM); in experiment [8] it was 6.2 µg/mL (≈ 15.5 µM); in the experiment on Shigella sonnei, 12.5 µg/mL (≈ 31.2 µM); against Streptococcus pyogenes [9] it was 100 µg/mL (≈ 250 µM). Further, the MIC with Proteus inconstans is 100 µg/mL (≈ 250 µM); in the experiment with Enterococcus faecalis it was more than 100 µg/mL; in the experiment on Alcaligenes faecalis, 100 µg/mL (≈ 250 µM); against Escherichia coli [10] it was 50 µg/mL (≈ 125 µM); in the experiment with Bacteroides fragilis, 25 µg/mL (≈ 62.4 µM).
Take `CN1CCN(c2c(F)cc3c(=O)c(C(=O)O)cn(N4CC4c4ccccn4)c3c2F)CC1` (stereo unspecified): the MIC in the experiment on Bacillus subtilis was more than 100 µg/mL; against Salmonella typhimurium it was 25 µg/mL (≈ 56.6 µM); against Serratia marcescens, 25 µg/mL (≈ 56.6 µM); with Staphylococcus aureus [1] it was more than 100 µg/mL; in the experiment with Proteus vulgaris it was 25 µg/mL (≈ 56.6 µM); against Streptococcus pneumoniae it was 100 µg/mL (≈ 227 µM). Further, the MIC against Escherichia coli [2] is more than 100 µg/mL; in experiment [3], more than 100 µg/mL; in the experiment with Pseudomonas aeruginosa, more than 100 µg/mL; in the experiment with Clostridium perfringens, 100 µg/mL (≈ 227 µM); with Streptococcus pyogenes [4], more than 100 µg/mL; in the experiment with Klebsiella pneumoniae it was 12.5 µg/mL (≈ 28.3 µM). Moreover, the MIC is more than 100 µg/mL in experiment [5]; more than 100 µg/mL with Staphylococcus aureus [6]; 50 µg/mL (≈ 113 µM) in experiment [7]; 100 µg/mL (≈ 227 µM) in experiment [8]; 6.2 µg/mL (≈ 14 µM) in the experiment with Shigella sonnei; more than 100 µg/mL with Streptococcus pyogenes [9]. The MIC was 50 µg/mL (≈ 113 µM) in the experiment on Proteus inconstans; more than 100 µg/mL in the experiment on Enterococcus faecalis; more than 100 µg/mL with Alcaligenes faecalis; 50 µg/mL (≈ 113 µM) in the experiment with Escherichia coli [10]; more than 100 µg/mL with Bacteroides fragilis.
Regarding `O=C(O)c1cn(C2CC2)c2cc(N3CCNCC3)c(F)cc2c1=O` [CIPROFLOXACIN], the MIC worked out at 0.03 µg/mL (≈ 0.0905 µM) in the experiment with Bacillus subtilis; 0.015 µg/mL (≈ 0.0453 µM) with Salmonella typhimurium; 0.03 µg/mL (≈ 0.0905 µM) against Serratia marcescens; 0.12 µg/mL (≈ 0.362 µM) against Staphylococcus aureus [1]; 0.008 µg/mL (≈ 0.0241 µM) against Proteus vulgaris; 1 µg/mL (≈ 3.02 µM) with Streptococcus pneumoniae. In addition, the MIC in experiment [3] is 0.25 µg/mL (≈ 0.754 µM); in the experiment on Streptococcus pyogenes [4], 1 µg/mL (≈ 3.02 µM); with Klebsiella pneumoniae it was 0.008 µg/mL (≈ 0.0241 µM); in [5], 0.25 µg/mL (≈ 0.754 µM); against Staphylococcus aureus [6] it was 0.25 µg/mL (≈ 0.754 µM); in experiment [7] it was 0.05 µg/mL (≈ 0.151 µM). For the same compound, the minimum inhibitory concentration (MIC) turned out to be 0.2 µg/mL (≈ 0.604 µM) in experiment [8]; 0.015 µg/mL (≈ 0.0453 µM) in the experiment on Shigella sonnei; 1 µg/mL (≈ 3.02 µM) with Streptococcus pyogenes [9]; 0.03 µg/mL (≈ 0.0905 µM) in the experiment on Proteus inconstans; 1 µg/mL (≈ 3.02 µM) against Enterococcus faecalis; 1 µg/mL (≈ 3.02 µM) with Alcaligenes faecalis. This compound also gave an MIC in the experiment on Bacteroides fragilis of 6.2 µg/mL (≈ 18.7 µM).

The record behind these values is ChEMBL document CHEMBL1129105, “Synthesis and biological evaluation of N-(1-aziridino)-6-fluoro-quinolone-3-carboxylic acids” (1996).
